From patent US8623429B2, “Stabilized anthocyanin compositions” (Omnica GmbH, priority 2007, dated 2014)
One block for each compound: values may come before it.

How the values were obtained:
Assay type in all cases: physicochemical
[1] = Example 3: stability of black currant extract anthocyanosides, 4 hours at 37° C., pH 7.0, with/without DHLA, GSH or L-cysteine (HPLC); settings: for Peak Area, Fresh solution: black currant extract 60 mg/100 ml buffer pH 7.0, fresh sample; for % left, DHLA 20 mg / % left, GSH 20 mg / % left, L-cysteine 20 mg / Peak Area, DHLA 20 mg / Peak Area, GSH 20 mg / Peak Area, L-cysteine 20 mg / % left, Blank / Peak Area, Blank: pH 7.0, 37° C., 4 hours; for % left, Blank / Peak Area, Blank: unprotected
Method: (§1) Sample a) 60 mg black currant extract [35% anthocyanosides] (0.037 mmol anthocyanosides expressed as cyanidin-3-O-rutinoside) were added to a 100 ml flask and filled to volume with sodium phosphate buffer (5% [w/w], pH=7.0) and stirred until dissolution was complete. A 1 ml sample was taken immediately, acidified with formic acid to pH=1.0 and analyzed by HPLC for the content of anthocyanosides (Fresh Sample). The remaining solution was kept for 4 hours at 37° C. (water bath) with stirring. Thereafter samples (Blank sample), representing unprotected degradation, were taken and acidified.
(§2) Sample b) 20 mg reduced L-glutathione (0.065 mmol) were added to a 100 ml flask with 60 ml sodium phosphate buffer (5% [w/w], pH=7.0) and stirred until dissolution was complete. 60 mg black currant extract [35% anthocyanosides] (0.037 mmol anthocyanosides expressed as cyanidin-3-O-rutinoside) were then added and the flask was filled to volume with sodium phosphate buffer (5% [w/w], pH=7.0) and kept for 4 hours at 37° C. (water bath) with stirring.
as §2, with “Sample c)” for “Sample b)”, “mg dihydrolipoic acid (0.096” for “mg reduced L-glutathione (0.065”, “was completed.” for “was complete.”, “were” for “were then”, “added to” for “added and”, “the flask,” for “the flask was”
as §2, with “Sample d)” for “Sample b)”, “mg L-cysteine acid (0.165” for “mg reduced L-glutathione (0.065”, “were” for “were then”, “added to” for “added and”, “the flask,” for “the flask was”
After 4 hours samples were taken, acidified immediately with formic acid to pH=1.0 and analyzed by HPLC for the content of anthocyanosides. Degradation is expressed as decrease in peak area of individual peaks (calculated as % left after 4 hours).
(§3) Samples were prepared as outlined below in HPLC Analytical Method. Test stability samples were immediately acidified (to block degradation) and injected undiluted following the detailed description provided below.
HPLC Analytical Method (Materials, Instruments and Methods): […]

[2] = Example 5: degradation over time of black currant anthocyanosides at 37° C., pH 7.0, with/without GSH (HPLC); settings: pH 7.0, 37° C.; for %-residual anthocyanosides (% left): 4 hours
Method: as §1, with “flask,” for “flask and”, “anthocyanosides.” for “anthocyanosides (Fresh Sample).”, “kept” for “kept for 4 hours”, “stirring and 1 ml” for “stirring. Thereafter”, “Samples),” for “sample),”, “every 15 minutes. The samples were analyzed for selected anthocyanosides by HPLC.” for “and acidified.”
as §2, with “added,” for “then added and”, “for” for “for 4 hours”, “stirring. Every 15 minutes 1 ml samples were taken and analyzed for selected anthocyanosides by HPLC.” for “stirring.”
as §3

[3] = Example 8: oxidation of GSH to GSSG in buffer pH 7.0 at 37° C. with/without bilberry extract (HPLC); settings: buffer pH 7.0, 37° C.
Method: Sample a) 60 mg GSH (0.192 mmol) were placed into a 100 ml flask, dissolved and filled up to volume with sodium phosphate buffer (5% [w/w], pH=7.0). The sample was kept with stirring at 37° C. Samples were taken immediately after dissolution and after 1, 2, 3 and 4 hours of incubation. The samples were analyzed by HPLC for GSH and GSSG (representing the oxidized form of GSH).
Sample b) 60 mg reduced L-glutathione (0.192 mmol) were added to a 100 ml flask with 60 ml sodium phosphate buffer (5% [w/w], pH=7.0) and stirred until dissolution was complete. 60 mg bilberry extract [37% anthocyanosides] (0.048 mmol expressed as cyanidin-3-O-glucoside) were added, the flask was filled to volume with sodium phosphate buffer (5% [w/w], pH=7.0) and kept at 37° C. (water bath) with stirring. Samples were taken immediately after dissolution and after 1, 2, 3 and 4 hours of incubation. The samples were analyzed by HPLC for GSH and GSSG (representing the oxidized form of GSH).
as §3

[4] = GSH protected sample (20 mg), 0:00 h
[5] = GSH protected sample (20 mg), 0:15 h
[6] = GSH protected sample (20 mg), 0:45 h
[7] = GSH protected sample (20 mg), 1:00 h
[8] = GSH protected sample (20 mg), 1:15 h
[9] = GSH protected sample (20 mg), 1:45 h
[10] = GSH protected sample (20 mg), 2:00 h
[11] = GSH protected sample (20 mg), 2:15 h
[12] = GSH protected sample (20 mg), 2:45 h
[13] = GSH protected sample (20 mg), 3:00 h
[14] = GSH protected sample (20 mg), 3:15 h
[15] = GSH protected sample (20 mg), 3:45 h
[16] = GSH protected sample (20 mg), 4:00 h
[17] = GSH protected sample (20 mg), 4:15 h

Peak Area, Fresh solution [1]: 5207
% left, DHLA 20 mg [1]: 51.7%
% left, GSH 20 mg [1]: 53.1%
% left, L-cysteine 20 mg [1]: 38.0%
Peak Area, DHLA 20 mg [1]: 2692
Peak Area, GSH 20 mg [1]: 2764
Peak Area, L-cysteine 20 mg [1]: 1975
% left, Blank [1]: 12.0%
Peak Area, Blank [1]: 626.2
Peak Area ([2]; Blank sample, 0:00 h): 5207.5
Peak Area ([2]; Blank sample, 0:15 h): 3604.2
Peak Area ([2]; Blank sample, 0:30 h): 3366.5
Peak Area ([2]; Blank sample, 0:45 h): 2787.9
Peak Area ([2]; Blank sample, 1:00 h): 2660.6
Peak Area ([2]; Blank sample, 1:30 h): 2299.5
Peak Area ([2]; Blank sample, 1:45 h): 2291.6
Peak Area ([2]; Blank sample, 2:00 h): 1825.7
Peak Area ([2]; Blank sample, 2:15 h): 1747.2
Peak Area ([2]; Blank sample, 2:30 h): 1552.5
Peak Area ([2]; Blank sample, 2:45 h): 1442.9
Peak Area ([2]; Blank sample, 3:00 h): 1235.4
Peak Area ([2]; Blank sample, 3:15 h): 1166.0
Peak Area ([2]; Blank sample, 3:30 h): 907.2
Peak Area ([2]; Blank sample, 3:45 h): 891.1
Peak Area ([2]; Blank sample, 4:00 h): 626.2
%-residual anthocyanosides (% left) ([2]; Blank): 12%
Peak Area [2, 4]: 5201.3
Peak Area [2, 5]: 4584.2
Peak Area [2, 6]: 4275.7
Peak Area [2, 7]: 4273.1
Peak Area [2, 8]: 4168.7
Peak Area [2, 9]: 3749.9
Peak Area [2, 10]: 3813.3
Peak Area [2, 11]: 3544.9
Peak Area [2, 12]: 3199.5
Peak Area [2, 13]: 3327.2
Peak Area [2, 14]: 2993.9
Peak Area [2, 15]: 2761.0
Peak Area [2, 16]: 2763.6
Peak Area [2, 17]: 2579.8
%-residual anthocyanosides (% left) ([2]; GSH-protected): 53%
Structure (SMILES): C[C@@H]1O[C@@H](OC[C@H]2O[C@@H](Oc3cc4c(O)cc(O)cc4[o+]c3-c3cc(O)c(O)c(O)c3)[C@H](O)[C@@H](O)[C@@H]2O)[C@H](O)[C@H](O)[C@H]1O [Dp-3-O-Rut, Delphinidin-3-O-rutinoside]

Peak Area ([3]; GSH + bilberry Sample, 0 hours): 4760
peak area Ratio % ([3]; GSH + bilberry Sample, 0 hours): 92.3%
Peak Area ([3]; GSH + bilberry Sample, 1 hour): 4071
peak area Ratio % ([3]; GSH + bilberry Sample, 1 hour): 79.0%
Peak Area ([3]; GSH + bilberry Sample, 2 hours): 3378
peak area Ratio % ([3]; GSH + bilberry Sample, 2 hours): 65.5%
Peak Area ([3]; GSH + bilberry Sample, 3 hours): 3045
peak area Ratio % ([3]; GSH + bilberry Sample, 3 hours): 59.1%
Peak Area ([3]; GSH + bilberry Sample, 4 hours): 2461
peak area Ratio % ([3]; GSH + bilberry Sample, 4 hours): 47.7%
Peak Area ([3]; GSH Sample, 0 hours): 4760
peak area Ratio % ([3]; GSH Sample, 0 hours): 92.3%
Peak Area ([3]; GSH Sample, 1 hour): 4744
peak area Ratio % ([3]; GSH Sample, 1 hour): 92.0%
Peak Area ([3]; GSH Sample, 2 hours): 4220
peak area Ratio % ([3]; GSH Sample, 2 hours): 81.9%
Peak Area ([3]; GSH Sample, 3 hours): 4053
peak area Ratio % ([3]; GSH Sample, 3 hours): 78.6%
Peak Area ([3]; GSH Sample, 4 hours): 3777
peak area Ratio % ([3]; GSH Sample, 4 hours): 73.3%
Structure (SMILES): N[C@@H](CCC(=O)N[C@@H](CS)C(=O)NCC(=O)O)C(=O)O [GSH, reduced L-glutathione]

Peak Area, Fresh solution [1]: 3539
% left, DHLA 20 mg [1]: 51.1%
% left, GSH 20 mg [1]: 65.0%
% left, L-cysteine 20 mg [1]: 38.9%
Peak Area, DHLA 20 mg [1]: 1809
Peak Area, GSH 20 mg [1]: 2299
Peak Area, L-cysteine 20 mg [1]: 1377
% left, Blank [1]: 33.4%
Peak Area, Blank [1]: 1183
Peak Area ([2]; Blank sample, 0:00 h): 3539.1
Peak Area ([2]; Blank sample, 0:15 h): 2707.4
Peak Area ([2]; Blank sample, 0:30 h): 2620.7
Peak Area ([2]; Blank sample, 0:45 h): 2342.2
Peak Area ([2]; Blank sample, 1:00 h): 2278.1
Peak Area ([2]; Blank sample, 1:30 h): 2130.7
Peak Area ([2]; Blank sample, 1:45 h): 2104.9
Peak Area ([2]; Blank sample, 2:00 h): 1894.9
Peak Area ([2]; Blank sample, 2:15 h): 1851.7
Peak Area ([2]; Blank sample, 2:30 h): 1790.9
Peak Area ([2]; Blank sample, 2:45 h): 1694.9
Peak Area ([2]; Blank sample, 3:00 h): 1573.5
Peak Area ([2]; Blank sample, 3:15 h): 1531.6
Peak Area ([2]; Blank sample, 3:30 h): 1370.4
Peak Area ([2]; Blank sample, 3:45 h): 1361.3
Peak Area ([2]; Blank sample, 4:00 h): 1182.9
%-residual anthocyanosides (% left) ([2]; Blank): 33%
Peak Area [2, 4]: 3473.6
Peak Area [2, 5]: 3108.1
Peak Area [2, 6]: 2964.3
Peak Area [2, 7]: 3015.3
Peak Area [2, 8]: 2958.5
Peak Area [2, 9]: 2688.8
Peak Area [2, 10]: 2777.8
Peak Area [2, 11]: 2579.6
Peak Area [2, 12]: 2447.1
Peak Area [2, 13]: 2534.7
Peak Area [2, 14]: 2366.8
Peak Area [2, 15]: 2274.2
Peak Area [2, 16]: 2298.9
Peak Area [2, 17]: 2199.7
%-residual anthocyanosides (% left) ([2]; GSH-protected): 66%
Structure (SMILES): C[C@@H]1O[C@@H](OC[C@H]2O[C@@H](Oc3cc4c(O)cc(O)cc4[o+]c3-c3ccc(O)c(O)c3)[C@H](O)[C@@H](O)[C@@H]2O)[C@H](O)[C@H](O)[C@H]1O [Cn-3-O-Rut, Cyanidin-3-O-rutinoside]
